Patent US7651692B2, “Use of extracts of the plant Litchi chinensis sonn” (Cognis France S.A., priority 2001, dated 2010)
Where two headings read alike, the source gives them in different places.

Assays:
elastase = assay: Inhibition of elastase activity; format: biochemical; conditions: concentration 0.1 % (w/v)
Experimental: Serine proteases, such as elastase for example, degrade elastin, proteoglycans and collagen and thus weaken the connective tissue. […] The incubation time was 30 mins. at room temperature. The inhibition was followed photometrically at 410 nm; 1′α1-antitrypsin was used as positive standard.

human fibroblasts [1] = format: cell-based
Experimental: Human fibroblasts were inoculated with 10% by weight fetal calf serum in a defined nutrient medium (DMEM=Dulbecco Minimum Essential Medium, a product of Life Technologie S.a.r.l.) and incubated for 24 h at 37° C. in a 5% CO2 atmosphere. The nutrient medium containing fetal calf serum was then replaced by a nutrient medium of DMEM without fetal calf serum. Active substance in the form of the two extracts of the pericarp of Litchi chinensis Sonn. was then added to this nutrient medium in various concentrations.

[2] = Fenton's reaction: hydroxylation of salicylic acid by hydroxyl radicals; conditions: formation of hydroxysalicylic acid, optical density 490 nm
Excerpt: (§1) The first test substrate selected was diphenyl picryl hydrazyl (DPPH), a purple-red colored stable radical which changes into its colorless leuco derivative on contact with radical trappers. The change of color can be followed photometrically. The test results are set out in Table 3 (DPPH Test). In another test, the hydroxylation of salicylic acid by hydroxyl radicals (from the reaction of hydrogen peroxide with iron(III) ions and EDTA) was investigated as a reference system. This reaction can also be photometrically investigated because the hydroxylation product is reddish in color. The influence of the extracts on the formation of hydroxysalicylic acid was measured at an optical density of 490 nm. In a third and final test, xanthine oxidase was selected as the test system. Under oxidative tress, the enzyme converts purine bases, for example adenine or guanine, into […]. The oxygen radicals intermediately formed can be detected by reaction with luminol (via the luminescence) and quantitatively determined. The luminescence output diminishes in the presence of substances with radical-trapping properties.

[3] = Luminol + microperoxydase (biochemical test)
xanthine oxidase = assay: Luminol Test with xanthine oxidase (biochemical test)
Excerpt: as §1

[4] = DPPH Test (chemical test, activity towards free radicals)
Excerpt: as §1

MMP-1 = assay: Inhibition of collagenase synthesis: MMP-1 poured out by fibroblasts; format: cell-based, human; conditions: 0.1 μm
Experimental: (§2) This test is used to evaluate the ability of the litchi extract to reduce the toxic effects of UV-A radiation on human fibroblasts cultivated in vitro. To this end, both the quantity of the enzyme MMP-1 (matrix metalloproteinase) poured out and the quantity of the natural enzyme inhibitor TIMP-1 are determined. UV-A radiation is used in this test because it can penetrate into the dermis and induce oxidative stress which leads to ageing of the skin.
(§3) To this end, the fibroblasts are cultivated in a precisely defined medium containing fetal calf serum. […] After further incubation for one day at 37° C./5% CO2, the culture medium is replaced by a salt solution and the fibroblasts are exposed to UV-A (15 J/cm^2, lamp: SOL500, Dr. Höhnle. filter: H1, radiometer: Vibert Lourmat). After the exposure, the fibroblasts are incubated for another two days. The MMO-1 and TIMP-1 contents of the supernatant medium are determined with an Amersham test kit (Kit No. RPN2610 and RPN2611). No extract was added to the control.

TIMP-1 = TIMP-1 poured out by fibroblasts; format: cell-based, human; conditions: concentration not printed in this line
Experimental: as §2, §3

[5] = system: human leucocytes (neutrophilic granulocytes); assay: Anti-inflammatory activity: respiratory burst, released oxygen radicals; format: cell-based; conditions: 0.001% by weight
Experimental: Method: Anti-inflammatory activity was studied on a cell line of human leucocytes (neutrophilic granulocytes). To this end, the cells were incubated with various concentrations of extracts of Example 1 to be tested, after which a respiratory burst was induced by yeast cell extract (“zymosan”) by activation of the cells for 30 mins. with 0.1 ml zymosan. The content of oxygen radicals intermediately formed was determined for 60 seconds by reaction with luminol via the luminescence and quantitatively evaluated. The luminescence yield falls in the presence of substances with radical-trapping properties. The percentage of released radicals was determined against a reference substance (Minocycline—a radical trapper). The results are expressed in % relative to the control. For control purposes, the number of intact cells was determined with a particle counter and is shown in % by comparison with the control.

human keratinocytes = assay: Cell protecting effect against UV-B in human keratinocytes cultivated in vitro; format: cell-based; conditions: UV-B 50 mJ/cm^2; 0.001% substance; level in % by comparison with the control
Experimental: Method: The effect of UV-B radiation was investigated in vitro in keratinocytes by determining the release of the cytoplasm enzyme LDH (lactate dehydrogenase). This enzyme serves as a marker for cell damage.
To carry out the tests, a defined medium containing fetal calf serum was inoculated with the keratinocytes and the plant extract (diluted with saline solution) was added 72 hours after the inoculation.
The keratinocytes were then exposed to a dose of UV-B (50 mJ/cm^2-tubes: DUKE FL40E).
After incubation for another day at 37° C./5% CO2, the LDH content in the supernatant was determined. The LDH (lactate dehydrogenase) content was determined by an enzyme reaction (kit used to determine LDH levels from Roche). The number of adhering keratinocytes was determined (after trypsin treatment) with a particle counter.

Human plasmin = Human plasmin (Homo sapiens, UniProt P00747); assay: Plasmin inhibition after addition of the synthetic substrate; format: biochemical; conditions: 50 μg/ml
Sequence of Human plasmin (P00747 581-810 limits assumed): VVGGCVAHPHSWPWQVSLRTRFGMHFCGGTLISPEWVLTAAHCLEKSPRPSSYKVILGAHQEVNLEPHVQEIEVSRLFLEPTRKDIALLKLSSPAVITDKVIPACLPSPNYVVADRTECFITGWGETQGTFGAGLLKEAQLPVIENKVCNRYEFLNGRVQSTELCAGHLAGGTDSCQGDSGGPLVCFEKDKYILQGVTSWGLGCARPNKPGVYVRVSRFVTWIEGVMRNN
Sequence of Human plasmin (P00747 97-580 partner limits assumed): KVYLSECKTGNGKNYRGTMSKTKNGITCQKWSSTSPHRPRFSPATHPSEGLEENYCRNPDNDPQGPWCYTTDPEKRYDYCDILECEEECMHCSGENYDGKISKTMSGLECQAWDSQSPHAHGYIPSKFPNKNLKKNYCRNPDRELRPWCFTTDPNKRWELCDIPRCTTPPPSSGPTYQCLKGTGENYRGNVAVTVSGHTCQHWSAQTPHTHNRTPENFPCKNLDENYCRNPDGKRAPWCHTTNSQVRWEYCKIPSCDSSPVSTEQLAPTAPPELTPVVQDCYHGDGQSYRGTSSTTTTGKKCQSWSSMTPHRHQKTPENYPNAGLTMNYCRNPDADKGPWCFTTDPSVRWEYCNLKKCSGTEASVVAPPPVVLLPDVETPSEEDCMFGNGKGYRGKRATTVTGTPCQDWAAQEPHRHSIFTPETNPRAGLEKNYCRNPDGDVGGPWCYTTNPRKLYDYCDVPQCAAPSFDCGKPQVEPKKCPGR
Experimental: Thereafter, either synthetic substrate, especially “Val-Leu-paranitroanilide”, a product of Chromogenix, or natural pro-MMP3 obtained from Merck-Eurolab was added to the mixture. In the case of the synthetic substrate, absorption at 405 nm was measured every 5 minutes over a period of 30 minutes and the release of paranitroanilines was thus determined.
The inhibition of enzymatic activity was tested against a control with no substrate and against a reference substance, more particularly Aprotinine, a product of Sigma.

human MMP-1 = target: T1, human MMP-1 (Homo sapiens, UniProt P03956); assay: Inhibition of collagenase activity (MMP-1); format: biochemical; conditions: concentration 50 nmol
T1 sequence (P03956 100-469): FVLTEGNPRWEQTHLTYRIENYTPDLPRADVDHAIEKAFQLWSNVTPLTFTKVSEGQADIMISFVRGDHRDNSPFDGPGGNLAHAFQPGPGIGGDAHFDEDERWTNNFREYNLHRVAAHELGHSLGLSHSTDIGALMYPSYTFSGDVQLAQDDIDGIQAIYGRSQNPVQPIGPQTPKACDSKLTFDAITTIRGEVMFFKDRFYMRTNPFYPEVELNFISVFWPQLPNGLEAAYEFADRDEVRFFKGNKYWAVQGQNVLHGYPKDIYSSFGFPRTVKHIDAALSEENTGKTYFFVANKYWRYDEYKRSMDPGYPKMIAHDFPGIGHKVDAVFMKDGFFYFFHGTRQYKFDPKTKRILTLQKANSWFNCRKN
Experimental: After exposure to the sun, dermal fibroblasts of elderly people pour out collagenases—also known as matrix metalloprotease (MMP). […] The incubation time was 60 mins. at room temperature. The hydrolysis of the substrate was determined by fluorescence spectrometry at λem=393 nm (λex=328 nm). The […] TIMP-1 (MMP inhibitor occurring naturally in tissue) was used as the comparison standard.

human fibroblasts [6] = assay: Cell protecting effect against UV-A on human fibroblasts cultivated in vitro; format: cell-based; conditions: UV-A 20 J/cm^2; 0.0003% substance; level in % by comparison with the control
Experimental: Method: To carry out these tests, a defined culture medium containing the fibroblasts is inoculated with foetal calf serum and added to the plant extract (in the defined medium containing 10% fetal calf serum) 72 hours after inoculation.
After incubation for 48 hours at 37° C./5% CO2, the culture medium was replaced by saline solution (physiological NaCl solution) and the fibroblasts were exposed to a dose of UV-A (365 nm, 20 J/cm^2; tubes: MAZDA FLUOR TFWN40).
After the exposure to UV-A, the MDA level (malonaldialdehyde level) in the supernatant sodium chloride solution was quantitatively determined by reaction with thiobarbituric acid.

[7] = After exposure to UV-A (15 J/cm^2)

**Q.** For “1′α1-Antitrypsin: natural elastase inhibitor used as positive standard”, which “Elastase inhibition in %” value (elastase) is on record?
**A.** The value was 68%.

**Q.** Which “LD50 in % (w/v), ATP” value (human fibroblasts [1]; human fibroblasts, 3 days, intracellular ATP content) does the source give for `O=C1O[C@H]([C@@H](O)CO)C(O)=C1O` [Ascorbic acid] here?
**A.** The value was 0.0056 % (w/v).

**Q.** And the “LD50 in % (w/v), Proteins” value (human fibroblasts [1]; human fibroblasts, 3 days, protein content (Bradford))?
**A.** The value was 0.0055 % (w/v).

**Q.** And the “EC50 in %, Fenton's reaction” value [2]?
**A.** Its value is 0.1%.

**Q.** What about the “EC50 in %, Luminol + microperoxydase” value [3] of the same compound?
**A.** The value was 0.0058%.

**Q.** And the “EC50 in %, Luminol” value (xanthine oxidase)?
**A.** Its value is 0.0006%.

**Q.** What about the “EC50 in %, NBT” value (NBT (biochemical test)) of the same compound?
**A.** Its value is 0.5909%.

**Q.** What about the “EC50 in %, DPPH Test” value [4] of the same compound?
**A.** Its value is 0.0013%.

**Q.** For `C[C@@H]1C[C@H]2[C@@H]3CCC4=CC(=O)C=C[C@]4(C)[C@@]3(F)[C@@H](O)C[C@]2(C)[C@@]1(O)C(=O)CO` [Dexamethasone], which MMP-1 poured out (MMP-1; [7]) is on record?
**A.** The MMP-1 poured out was 7 ng/mL.

**Q.** And the MMP-1 poured out (MMP-1; Without exposure to UV-A)?
**A.** Its MMP-1 poured out is 2 ng/mL.

**Q.** What about the TIMP-1 poured out (TIMP-1; [7]) of the same compound?
**A.** Its TIMP-1 poured out is 19 ng/mL.

**Q.** What about the TIMP-1 poured out (TIMP-1; Without exposure to UV-A) of the same compound?
**A.** The TIMP-1 poured out was 39 ng/mL.

**Q.** With `CN(C)c1ccc(O)c2c1C[C@H]1C[C@H]3[C@H](N(C)C)C(O)=C(C(N)=O)C(=O)[C@@]3(O)C(O)=C1C2=O` [Minocycline] as the compound, how does the “No. of intact cells” value ([5]; in % by comparison with the control) read?
**A.** Its value is 100%.

**Q.** What about the “ROS content (%/control)” value ([5]; zymosan-induced respiratory burst) of the same compound?
**A.** The value was 28 %/control.

**Q.** With `CC(=O)Oc1ccccc1C(=O)O` [aspirin] as the compound, how does the LDH released (human keratinocytes) read?
**A.** The LDH released was 68%.

**Q.** And the No. of keratinocytes (human keratinocytes)?
**A.** Its No. of keratinocytes is 33%.

**Q.** Which “% Inhibition compared with the control (plasmin)” value (Human plasmin) does the source give for Aprotinine here?
**A.** Its value is 100%.

**Q.** Which “MMP-1 Inhibition in %” value (human MMP-1) does the source give for “TIMP-1: MMP inhibitor occurring naturally in tissue, used as the comparison standard” here?
**A.** Its value is 93%.

**Q.** With tocopherol as the compound, how does the “LD50 in % (w/v), ATP” value (human fibroblasts [1]) read?
**A.** The value was “Nt toxic up”.

**Q.** And the “LD50 in % (w/v), Proteins” value (human fibroblasts [1])?
**A.** Its value is “Not toxic up”.

**Q.** And the Cell proteins (human fibroblasts [6])?
**A.** The Cell proteins was 97%.

**Q.** What about the GSH/protein (human fibroblasts [6]) of the same compound?
**A.** The GSH/protein was 78%.

**Q.** What about the MDA released (human fibroblasts [6]) of the same compound?
**A.** Its MDA released is 11%.

**Q.** And the “EC50 in %, Luminol + microperoxydase” value [3]?
**A.** The value was “No effect up”.

**Q.** And the “EC50 in %, Luminol” value (xanthine oxidase)?
**A.** Its value is “No effect up”.

**Q.** What about the “EC50 in %, NBT” value (NBT (biochemical test)) of the same compound?
**A.** The value was “No effect up”.

**Q.** And the “EC50 in %, DPPH Test” value [4]?
**A.** The value was 0.0067%.
